Source: patent US6387910B1, “Drug of improving optic nerve head circulation disorder” (Akzo Nobel N.V., priority 1998, dated 2002)

Experiments:
[1] = test system: blood flow in the optic nerve head; assay: Blood flow in the optic nerve head by laser speckle technique (rate of change of NB value); format: in vivo; settings: rabbit, i.v.
Procedure: The optic nerve head circulation improving activity was measured by using as an index the rate of change of NB value as mentioned hereinafter.
1) Measurement of Blood Flow in the Optic Nerve Head by Laser Speckle Technique
(§1) Male New Zealand White rabbits (weighing 2.3-3.1 kg) were housed in an OSHIDA-type solid box and the left auricula was locally anesthetized with Xylocaine Spray (trademark, manufactured by Fujisawa Pharmaceutical) and Xylocaine Jelly (trademark, manufactured by Fujisawa Pharmaceutical), and a catheter (Polyethylene Tube SP28, manufactured by Natsume) were inserted into the post auricular artery for measuring the blood pressure and the heart rate, and the blood pressure and the heart rate were continuously recorded with a recorder (WT-645G, manufactured by Nihon-Koden). Under the local anesthesia, a catheter for administering the test drug (Polyethylene Tube SP31, manufactured by Natsume) was likewise inserted into the right post auricular vein of the animal.
The blood flow of the optic nerve head was measured by selecting a portion having no surface blood vessel at the right optic nerve head [0.42×0.42 mm (field angle 30°) with an eyegrounds circulation analyzer (Laser speckle circulation analyzer-II: LSCA-II), measuring the mean value of the quantitative index of blurring in whole field (100×100) [NB value (normalized blur value)], and calculating the rate of change (%) of the NB value by the following equation: [formula]
By the way, the test drug was prepared by adding a 20% dimethylacetamide solution containing 2% tartaric acid to a drug to be tested so as to adjust the ad ministration volume thereof to 0.1 ml/kg and dissolving the mixture by adding thereto a hot water.
The change of the value between the data after administration of drug or vehicle and the data before the administration of drug or vehicle was determined, and for each item, the mean values and standard deviation in six animals in each test were determined, and the results are shown in the accompanying FIG. 1 to FIG. 8. […]

[2] = test system: blood flow in the optic nerve head; settings: literature: Nichi-Gan Kaishi Vol. 100, No. 12, p. 923, 1996; cited from earlier work
intraocular pressure = assay: Measurement of intraocular pressure in rabbits (pneumatonometer); format: in vivo; settings: rabbit; 0.003, 0.01 and 0.03 mg/kg, i.v.
Procedure: 2) Measurement of Intraocular Pressure The intraocular pressure was measured on the left eye at each time when the above NB values were measured after the administration of drug or vehicle (excepting 5 minutes after administration, the intraocular pressure was not measured) after dropping a 0.4% solution of Benoxil (trademark, manufactured by Santen Pharmaceutical) by using a calibrated pneumatonometer (Alcon Application Pneumatonograph, manufactured by Nippon Alcon). The change of the value between the data after administration of drug or vehicle and the data before the administration of drug or vehicle was determined, and for each item, the mean values and standard deviation in six animals in each test were determined, and the results are shown in the accompanying FIG. 1 to FIG. 8. The significant test of the test drug was done by t-test at each time of measurement compared to the data in the control group administered with vehicle. The significant standards are indicated separately in the group of less than 5% and the group of less than 1%.

[3] = test system: blood pressure and heart rate; assay: Mean blood pressure and heart rate in rabbits (post auricular artery catheter); format: in vivo; settings: rabbit
Source text: as §1
The change of the value between the data after administration of drug or vehicle and the data before the administration of drug or vehicle was determined, and for each item, the mean values and standard deviation in six animals in each test were determined, and the results are shown in the accompanying FIG. 1 to FIG. 8. The significant test of the test drug was done by t-test at each time of measurement compared to the data in the control group administered with vehicle. The significant standards are indicated separately in the group of less than 5% and the group of less than 1%.

[4] = Measurement of plasma concentration of drug in rabbit (gas chromatography); format: in vivo; settings: Lomerizine hydrochloride 0.03 mg/kg, i.v.
Procedure: Under the same conditions as in the above Example 1, the plasma concentration of Lomerizine in the groups administered with Lomerizine hydrochloride (0.03 mg/kg, i.v.) 5, 15, 30 and 60 minutes after the administration of the drug as follows.
Male New Zealand White rabbits (weighing 2.5-3.5 kg, 3 animals per group) were placed in an OSHIDA-type solid box. A solution of Lomerizine hydrochloride (in an amount so as to be 0.03 mg/kg) in a 20% dimethylacetamide containing 2% tartaric acid was prepared and was administered to the right post auricular vein of the animals. Thereafter, blood sampling was done from left post auricular vein 5, 15, 30 and 60 minutes after the administration of test drug. The collected blood sample was centrifuged (4° C., 3000 rpm×10 minutes) to obtain a plasma sample, and then the amount of Lomerizine in the plasma was measured by gas chromatography.
The gas chromatography was carried out under the following conditions:
GC-14B type gas chromatograph (manufactured by Shimadzu Corporation)
FTD Detector (Shimadzu FTD-8, manufactured by Shimadzu Corporation)
Conditions for Measurement:
Column: Shimadzu CBP1-M25-025 (25m×0.2mm, thickness of membrane: 0.25 μm)
Injection port temperature: 310° C.
Column temperature: 285° C.
Detector temperature: 310° C.
Carrier gas: Helium (2.30 kg/m^2)
Make up gas: Helium (flow rate: 40 ml/minute)
H2 flow rate: 3.8 ml/minute
Air flow rate: 160 ml/minute

[5] = test system: side effects (objective and subjective symptoms); assay: Side effect-manifestation in aged and younger persons; format: in vivo; settings: human
[6] = 0.03 mg/kg, i.v., 15 minutes after the administration

Compound | increasing activity of blood flow in the optic nerve head (rate of change of NB value) vs vehicle ([1]; 0.03 mg/kg, 30 minutes after the administration) | increasing activity of blood flow in the optic nerve head (rate of change of NB value) vs vehicle ([1]; 0.003, 0.01 and 0.03 mg/kg, significant 5 minutes after the administration) | increasing activity of blood flow in the optic nerve head (rate of change of NB value) vs vehicle ([1]; 0.003 and 0.03 mg/kg, 15 minutes after the administration) | action on the optic nerve head (blood flow) [2] | action on the intraocular pressure (intraocular pressure) | heart rate vs vehicle [3, 6] | hypotensive activity (mean blood pressure) vs vehicle [3, 6] | hypotensive activity (mean blood pressure) vs vehicle ([3]; 0.01 and 0.03 mg/kg, i.v., 5 minutes after the administration) | heart rate vs vehicle ([3]; 0.01 and 0.03 mg/kg, i.v., 30 minutes after the administration) | heart rate vs vehicle ([3]; all groups (0.003, 0.01 and 0.03 mg/kg, i.v.), 5 minutes after the administration) | Concentration of Lomerizine in Plasma, Mean ± Standard deviation ([4]; 5 minutes after administration) [ng/mL] | Concentration of Lomerizine in Plasma, Mean ± Standard deviation ([4]; 15 minutes after administration) [ng/mL] | Concentration of Lomerizine in Plasma, Mean ± Standard deviation ([4]; 30 minutes after administration) [ng/mL] | side effect-manifestation in aged persons (65-85 years old) compared with younger persons (15-64 years old) [5]
COC(=O)C1=C(C#N)NC(C)=C(C(=O)OC(C)C)C1c1cccc([N+](=O)[O-])c1 (centres unmarked) [Nilvadipine] | significant increasing activity | higher increasing activity | significant increasing activity | an activity of increasing blood flow | no clear action | significant increase | significant hypotensive activity | significant hypotensive activity | significant increase | significant increase |  |  |  | 
Lomerizine |  |  |  |  |  |  |  |  |  |  | 19.8 ± 6.5 | 8.1 ± 2.4 | 4.9 ± 2.4 | not so different
